# Data from the supplement of paper PMC10307832.
# Assays:
# Assay in all cases: relative viability (nuclei count vs DMSO), 5 days (fraction); higher = more cells survive
# Irinotecan = compound: CCc1c2c(nc3ccc(OC(=O)N4CCC(N5CCCCC5)CC4)cc13)-c1cc3c(c(=O)n1C2)COC(=O)[C@]3(O)CC [Irinotecan]
# Method in brief: (§1)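 Lung cancer cell lines received five library-drug doses (not always all listed) spaced by √10, pinned on vehicle-anchored 1536-well plates after an overnight stay at 37 °C. Five days later, with no medium change, nuclei were Hoechst-stained, imaged at 4× and counted with MetaXpress. Viability is treated-well nuclei relative to vehicle-well nuclei, as a median across plates. Passing plates had control CV below 25% and at least one doubling.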
# RU-SKI 43 = compound: CC[C@@H](C)CNCC(=O)N1CCC2=C([C@@H]1COC3=CC=CC(=C3)C)C=CS2 [RU-SKI 43]
# Method in brief: as §1
# MK-8033 = compound: Cn1cc(-c2cnc3ccc4ccc(CS(=O)(=O)NCc5ccccn5)cc4c(=O)c3c2)cn1 [MK-8033]
# Method in brief: as §1
# RU-SKI 43 + Foretinib = compound: CC[C@@H](C)CNCC(=O)N1CCC2=C([C@@H]1COC3=CC=CC(=C3)C)C=CS2 [RU-SKI 43] + COc1cc2c(Oc3ccc(NC(=O)C4(C(=O)Nc5ccc(F)cc5)CC4)cc3F)ccnc2cc1OCCCN1CCOCC1 [Foretinib] (partner 0.25 µM)
# Method in brief: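 Relative viability divides the nuclei count in treated wells by that in vehicle wells. Lung cancer cell lines were seeded in 1536-well plates, dosed by pin tool the next day, and fixed and stained after 5 days in one step with final 0.05% Triton X-100, 1% formaldehyde and 1 ug/ml Hoechst. Dosing was a single drug or a fixed anchor-drug dose plus five library-drug doses (not always all listed) in √10 steps, and values are medians of duplicate plates imaged at 4×.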
Cell Line,relative viability (Irinotecan; 0.6325 µM),relative viability (Irinotecan; 2 µM),relative viability (Irinotecan; 6.325 µM),relative viability (Irinotecan; 20 µM),relative viability (RU-SKI 43; 0.1 µM),relative viability (RU-SKI 43; 0.3162 µM),relative viability (RU-SKI 43; 1 µM),relative viability (RU-SKI 43; 3.162 µM),relative viability (RU-SKI 43; 10 µM),relative viability (MK-8033; 0.02 µM),relative viability (MK-8033; 0.06325 µM),relative viability (MK-8033; 0.2 µM),relative viability (MK-8033; 0.6325 µM),relative viability (MK-8033; 2 µM),relative viability (RU-SKI 43 + Foretinib; first compound 0.1 µM),relative viability (RU-SKI 43 + Foretinib; first compound 0.3162 µM),relative viability (RU-SKI 43 + Foretinib; first compound 1 µM),relative viability (RU-SKI 43 + Foretinib; first compound 3.162 µM),relative viability (RU-SKI 43 + Foretinib; first compound 10 µM)
SK-LU-1,0.719,0.575,0.358,0.276,0.953,1.29,1.11,1.15,1.05,1.05,1.05,0.878,0.997,1.04,0.831,0.979,0.826,0.836,0.638
NCI-H1395,–,0.9,0.504,0.411,0.978,0.928,1.05,0.899,0.885,0.941,0.77,0.812,0.906,0.867,0.865,0.985,1.05,1.01,1
COR-L23,0.412,0.419,0.215,0.144,0.943,1.14,1.16,1.16,0.921,1.01,1.02,0.947,1.06,0.981,0.914,1.19,1.24,1.04,0.842
NCI-H2126,–,1.07,0.552,0.387,1.01,0.99,1.05,1.04,0.985,0.978,0.901,0.911,0.976,1.02,1.09,1.05,1.17,1.28,1.33
EPLC-272H,0.419,0.665,0.282,0.243,1,0.905,1.07,0.857,0.915,0.923,0.745,0.85,0.991,0.76,0.717,0.677,0.745,0.744,0.592
NCI-H1793,–,0.905,0.463,0.227,0.986,0.939,1,0.894,0.755,0.935,–,0.761,0.792,0.8,0.602,0.68,0.738,0.762,0.502
SW 900,0.51,0.787,0.497,0.432,0.716,0.93,1.02,0.683,0.62,0.884,0.684,0.685,1.03,0.789,0.807,0.873,1.22,0.864,0.77
NCI-H2009,0.716,0.733,0.272,0.153,1.02,1.07,1.07,1.06,1.01,1.05,1.01,0.953,0.945,0.961,1.21,1.42,1.31,1.24,1.17
NCI-H2347,0.789,0.83,0.483,0.495,0.978,1.09,1.1,0.97,0.967,1.02,1.02,0.984,1.03,1.04,1.04,1.04,1.34,0.842,1.06
